{"source": "patent US20140329682A1", "about": "“METHOD OF CONTROLLING WEED IN A SUGAR CANE FIELD” (SUMITOMO CHEMICAL COMPANY, LIMITED, priority 2011, published 2014)", "format_in_all_cases": "in vivo", "key": {"sugar cane [1]": {"system": "sugar cane", "assay": "Phytotoxicity on sugar cane, soil surface spray on day of planting (Example 1)", "details": "four weeks after treatment, scale 0 to 100", "protocol": "The stem cutting from which a bud had grown to about 1 cm was selected, and the length of the stem cutting was adjusted to be 3 cm, 15 cm or 25 cm. The stem cutting of 3 cm or 15 cm had only one node, and the stem cutting of 25 cm had two nodes. A soil was packed into a 32 cm×25 cm×11 cm plastic pot, and seeds of Amaranthus retroflexus were seeded thereon. […] On the date when the stem cutting was planted, and after planting of the stem cutting, a water-diluted liquid of a flumioxazin water dispersible granule (water dispersible granule containing 51% floumioxazin, trade name: Valor SX, manufactured by Valent USA Corporation) (100 ppm or 250 ppm) was uniformly sprayed on the soil surface with a sprayer at an amount described in Table 1. Thereafter, the pot for a test was placed in a greenhouse. Four weeks after treatment with flumioxazin, phytotoxicity on sugar cane and the herbicidal activity against Amaranthus retroflexus were determined."}, "Amaranthus retroflexus": {"system": "Amaranthus retroflexus", "assay": "Herbicidal activity, spray from upper side of pot, sugar cane at 4 to 5 leaves (Example 2)", "details": "125 g (active ingredient)/ha, four weeks after treatment, scale 0 to 100", "protocol": "(§1) A sugar cane, a foliage of which had grown to about 4 to 5 leaves, was selected, and the length of the stem cutting was adjusted to be 8 cm, 15 cm or 25 cm. The 8 cm or 15 cm stem cutting had one node, and the 25 cm stem cutting had two nodes. A soil was packed into a 32 cm×25 cm×11 cm plastic pot, and seeds of Amaranthus retroflexus were seeded thereon. […] On the date when the stem cutting was planted, and after planting of the stem cutting, a water-diluted liquid of a flumioxazin water dispersible granule (water dispersible granule containing 51% flumioxazin, trade name: Valor SX, manufactured by Valent USA Corporation) (250 ppm) was uniformly sprayed with a sprayer from an upper side of the pot at an amount described in Table 2. Thereafter, the pot for a test was placed in a greenhouse. One week after treatment with flumioxazin, phytotoxicity on sugar cane was determined and, four weeks after treatment with flumioxazin, the herbicidal activity against Amaranthus retroflexus was determined."}, "sugar cane [2]": {"system": "sugar cane", "assay": "Phytotoxicity on sugar cane, spray from upper side of pot, sugar cane at 4 to 5 leaves (Example 2)", "details": "125 g (active ingredient)/ha, one week after treatment, scale 0 to 100", "protocol": "as §1"}}}
{"molecule": "C#CCN1C(=O)COc2cc(F)c(N3C(=O)C4=C(CCCC4)C3=O)cc21", "note": "[Flumioxazin, flumioxazin]", "values": [{"measurement": "Phytotoxicity on sugar cane", "setting": "sugar cane [1]; 50 g (active ingredient)/ha, stem cutting 3 cm (one node)", "result": 0}, {"measurement": "Phytotoxicity on sugar cane", "setting": "sugar cane [1]; 50 g (active ingredient)/ha, stem cutting 15 cm (one node)", "result": 5}, {"measurement": "Phytotoxicity on sugar cane", "setting": "sugar cane [1]; 50 g (active ingredient)/ha, stem cutting 25 cm (two nodes)", "result": 20}, {"measurement": "Phytotoxicity on sugar cane", "setting": "sugar cane [1]; 125 g (active ingredient)/ha, stem cutting 3 cm (one node)", "result": 0}, {"measurement": "Phytotoxicity on sugar cane", "setting": "sugar cane [1]; 125 g (active ingredient)/ha, stem cutting 15 cm (one node)", "result": 5}, {"measurement": "Phytotoxicity on sugar cane", "setting": "sugar cane [1]; 125 g (active ingredient)/ha, stem cutting 25 cm (two nodes)", "result": 20}, {"measurement": "Herbicidal activity", "setting": "Amaranthus retroflexus; stem cutting 8 cm", "result": 100}, {"measurement": "Herbicidal activity", "setting": "Amaranthus retroflexus; stem cutting 15 cm", "result": 100}, {"measurement": "Herbicidal activity", "setting": "Amaranthus retroflexus; stem cutting 25 cm", "result": 100}, {"measurement": "Phytotoxicity on sugar cane", "setting": "sugar cane [2]; stem cutting 8 cm (one node)", "result": 10}, {"measurement": "Phytotoxicity on sugar cane", "setting": "sugar cane [2]; stem cutting 15 cm (one node)", "result": 10}, {"measurement": "Phytotoxicity on sugar cane", "setting": "sugar cane [2]; stem cutting 25 cm (two nodes)", "result": 30}]}
